Experimental data taken from patent US20020137929A1, “1 - (3-heterocyclylphenyl) isothiourea, -isourea, -guanidine and -amidine herbicidal agents” (Intellectual Property Department, BASF Aktiengesellschaft, priority 1998, published 2002).

What was measured:
[1] = tested on: AMBEL (Ragweed, Common); assay: Preemergence herbicidal evaluation; type: in vivo, Ambrosia artemisifolia; conditions: rated 4-5 weeks after treatment
Method in brief: (§1)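 Steps: mix seeds into potting soil; plant atop ~1 inch soil; spray compound in aqueous acetone (~0.0156-0.500 kg/ha equivalent); maintain in greenhouse with watering; rate visually 0-9 versus control at 4-5 weeks.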

[2] = tested on: SETVI (Foxtail, Green); assay: Postemergence herbicidal evaluation; type: in vivo, Setaria viridis
Method in brief: (§2)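 Herbicidal effect was judged by eye on a 0–9 scale covering stand, vigor, deformity, size and chlorosis, compared with controls, four to five weeks after seedlings about two weeks old were sprayed (40 psi, ~0.0156–0.500 kg/ha).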

[3] = tested on: ABUTH (Velvetleaf); assay: Postemergence herbicidal evaluation; type: in vivo, Abutilon theophrasti
Method in brief: as §2

[4] = tested on: SETVI (Foxtail, Green); assay: Preemergence herbicidal evaluation; type: in vivo, Setaria viridis; conditions: rated 4-5 weeks after treatment
Method in brief: as §1

[5] = tested on: CHEAL (Lambsquarters, Common); assay: Postemergence herbicidal evaluation; type: in vivo, Chenopodium album
Method in brief: as §2

[6] = tested on: TRZAWR (Wheat, Winter, cv Riband); assay: Postemergence herbicidal evaluation; type: in vivo, Triticum aestivum
Method in brief: as §2

[7] = tested on: ECHORC (Watergrass (Calif.)); assay: Postemergence weed control under flooded paddy conditions; type: in vivo, Echinochloa oryzoides; conditions: postemergence weeds, 3-4 weeks after treatment
Method in brief: (§3)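 Flood-water application, about 0.0313–0.500 kg/ha a.i. in aqueous/acetone 50/50 v/v; water depth 1.5–3 cm throughout. Weeds 3–5 cm, rice 1.5–2.5 leaf. Greenhouse; 0–9 visual rating vs control at 3–4 wk.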

[8] = tested on: ORYSAT (Rice, Tebonnet); assay: Postemergence herbicidal evaluation; type: in vivo, Oryza sativa, (L.) Tebonnet
Method in brief: as §2

[9] = tested on: ZEAMX (Corn, Field); assay: Postemergence herbicidal evaluation; type: in vivo, Zea mays
Method in brief: as §2

[10] = tested on: CYPIR (Rice Flatsedge); assay: Preemergence weed control under flooded paddy conditions; type: in vivo, Cyperus iria; conditions: rated 3-4 weeks after treatment
Method in brief: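 Visual injury scored 0-9 against control three to four weeks post-treatment, greenhouse-grown. Application: acetone/water (50/50) solutions dosed directly into flood water (1.5-3 cm over silt loam, planted top 0.5 cm), roughly 0.0313 to 0.500 kg/ha active ingredient.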

[11] = tested on: SAGPY (Arrowhead (Pygmaea)); assay: Postemergence weed control under flooded paddy conditions; type: in vivo, Sagittaria pygmaea; conditions: postemergence weeds, 3-4 weeks after treatment
Method in brief: as §3

[12] = tested on: GLXMAW (Soybean, Williams); assay: Postemergence herbicidal evaluation; type: in vivo, Glycine max, (L.) Merr. cv Williams
Method in brief: as §2

[13] = tested on: CYPSE (Flatsedge); assay: Postemergence weed control under flooded paddy conditions; type: in vivo, Cyperus serotinus; conditions: postemergence weeds, 3-4 weeks after treatment
Method in brief: as §3

[14] = tested on: GALAP (Galium); assay: Preemergence herbicidal evaluation; type: in vivo, Galium aparine; conditions: rated 4-5 weeks after treatment
Method in brief: as §1

Cn1c(C(F)(F)F)cc(=O)n(-c2cc(N=C3SCC(=O)N3CCC(=O)O)c(Cl)cc2F)c1=O [Compound 31, 2-{{2-Chloro-5-[3,6-dihydro-3-methyl-2,6-dioxo-4-(trifluoromethyl)-1(2H)-pyrimidinyl]-4-fluoro-phenyl}imino}-4-oxo-3-thiazolidinepropionic acid]
Preemergence herbicidal rating AMBEL ([1]; rate 0.0625 kg/ha): 0.0 | Preemergence herbicidal rating AMBEL ([1]; rate 0.1250 kg/ha): 4.0 | Preemergence herbicidal rating AMBEL ([1]; rate 0.2500 kg/ha): 9.0 | Postemergence herbicidal rating SETVI ([2]; Rate 0.0158 kg/ha): 0.0 | Postemergence herbicidal rating SETVI ([2]; Rate 0.0315 kg/ha): 0.0 | Postemergence herbicidal rating SETVI ([2]; Rate 0.0630 kg/ha): 7.0 | Postemergence herbicidal rating ABUTH ([3]; Rate 0.0158 kg/ha): 9.0 | Postemergence herbicidal rating ABUTH ([3]; Rate 0.0315 kg/ha): 9.0 | Postemergence herbicidal rating ABUTH ([3]; Rate 0.0630 kg/ha): 9.0 | Preemergence herbicidal rating SETVI ([4]; rate 0.0625 kg/ha): 1.0 | Preemergence herbicidal rating SETVI ([4]; rate 0.1250 kg/ha): 9.0 | Preemergence herbicidal rating SETVI ([4]; rate 0.2500 kg/ha): 9.0 | Postemergence herbicidal rating CHEAL ([5]; Rate 0.0158 kg/ha): 0.0 | Postemergence herbicidal rating CHEAL ([5]; Rate 0.0315 kg/ha): 2.0 | Postemergence herbicidal rating CHEAL ([5]; Rate 0.0630 kg/ha): 7.0 | Postemergence herbicidal rating TRZAWR ([6]; Rate 0.0158 kg/ha): 5.0 | Postemergence herbicidal rating TRZAWR ([6]; Rate 0.0315 kg/ha): 5.5 | Postemergence herbicidal rating TRZAWR ([6]; Rate 0.0630 kg/ha): 6.5 | Herbicidal rating ECHORC ([7]; rate 0.0625 kg/ha): 1.0 | Herbicidal rating ECHORC ([7]; rate 0.1250 kg/ha): 2.0 | Herbicidal rating ECHORC ([7]; rate 0.2500 kg/ha): 5.0 | Postemergence herbicidal rating ORYSAT ([8]; Rate 0.0158 kg/ha): 3.5 | Postemergence herbicidal rating ORYSAT ([8]; Rate 0.0315 kg/ha): 4.0 | Postemergence herbicidal rating ORYSAT ([8]; Rate 0.0630 kg/ha): 5.5 | Postemergence herbicidal rating ZEAMX ([9]; Rate 0.0158 kg/ha): 7.0 | Postemergence herbicidal rating ZEAMX ([9]; Rate 0.0315 kg/ha): 7.5 | Postemergence herbicidal rating ZEAMX ([9]; Rate 0.0630 kg/ha): 8.0 | Herbicidal rating CYPIR ([10]; 0.0625 kg/ha): 0.0 | Herbicidal rating CYPIR ([10]; 0.1250 kg/ha): 0.0 | Herbicidal rating CYPIR ([10]; 0.2500 kg/ha): 2.5 | Herbicidal rating SAGPY ([11]; rate 0.0625 kg/ha): 0.0 | Herbicidal rating SAGPY ([11]; rate 0.1250 kg/ha): 0.0 | Herbicidal rating SAGPY ([11]; rate 0.2500 kg/ha): 0.0 | Postemergence herbicidal rating GLXMAW ([12]; Rate 0.0158 kg/ha): 6.5 | Postemergence herbicidal rating GLXMAW ([12]; Rate 0.0315 kg/ha): 6.5 | Postemergence herbicidal rating GLXMAW ([12]; Rate 0.0630 kg/ha): 7.0 | Herbicidal rating CYPSE ([13]; rate 0.0625 kg/ha): 0.0 | Herbicidal rating CYPSE ([13]; rate 0.1250 kg/ha): 0.0 | Herbicidal rating CYPSE ([13]; rate 0.2500 kg/ha): 0.0 | Preemergence herbicidal rating GALAP ([14]; rate 0.0625 kg/ha): 0.0 | Preemergence herbicidal rating GALAP ([14]; rate 0.2500 kg/ha): 6.0

Cn1c(C(F)(F)F)cc(=O)n(-c2cc(N=C3SCC(=O)N3CCC(=O)O)c(Cl)cc2F)c1=O [Compound 30, 2-{{2-Chloro-5-[3,6-dihydro-3-methyl-2,6-dioxo-4-(trifluoromethyl)-1(2H)-pyrimidinyl]-4-fluorophenyl}imino}-4-oxo-3-thiazolidinepropionic acid]
Preemergence herbicidal rating AMBEL ([1]; rate 0.0313 kg/ha): 0.0 | Preemergence herbicidal rating AMBEL ([1]; rate 0.0625 kg/ha): 1.0 | Preemergence herbicidal rating AMBEL ([1]; rate 0.1250 kg/ha): 5.0 | Preemergence herbicidal rating AMBEL ([1]; rate 0.2500 kg/ha): 6.0 | Postemergence herbicidal rating SETVI ([2]; Rate 0.0158 kg/ha): 0.0 | Postemergence herbicidal rating SETVI ([2]; Rate 0.0315 kg/ha): 0.0 | Postemergence herbicidal rating SETVI ([2]; Rate 0.0630 kg/ha): 0.0 | Postemergence herbicidal rating ABUTH ([3]; Rate 0.0158 kg/ha): 3.0 | Postemergence herbicidal rating ABUTH ([3]; Rate 0.0315 kg/ha): 9.0 | Postemergence herbicidal rating ABUTH ([3]; Rate 0.0630 kg/ha): 9.0 | Preemergence herbicidal rating SETVI ([4]; rate 0.0313 kg/ha): 0.0 | Preemergence herbicidal rating SETVI ([4]; rate 0.0625 kg/ha): 0.0 | Preemergence herbicidal rating SETVI ([4]; rate 0.1250 kg/ha): 7.0 | Preemergence herbicidal rating SETVI ([4]; rate 0.2500 kg/ha): 9.0 | Postemergence herbicidal rating CHEAL ([5]; Rate 0.0158 kg/ha): 0.0 | Postemergence herbicidal rating CHEAL ([5]; Rate 0.0315 kg/ha): 0.0 | Postemergence herbicidal rating CHEAL ([5]; Rate 0.0630 kg/ha): 3.0 | Postemergence herbicidal rating TRZAWR ([6]; Rate 0.0158 kg/ha): 4.0 | Postemergence herbicidal rating TRZAWR ([6]; Rate 0.0315 kg/ha): 4.5 | Postemergence herbicidal rating TRZAWR ([6]; Rate 0.0630 kg/ha): 5.5 | Herbicidal rating ECHORC ([7]; rate 0.1250 kg/ha): 0.0 | Herbicidal rating ECHORC ([7]; rate 0.2500 kg/ha): 0.0 | Postemergence herbicidal rating ORYSAT ([8]; Rate 0.0158 kg/ha): 2.0 | Postemergence herbicidal rating ORYSAT ([8]; Rate 0.0315 kg/ha): 2.5 | Postemergence herbicidal rating ORYSAT ([8]; Rate 0.0630 kg/ha): 3.5 | Postemergence herbicidal rating ZEAMX ([9]; Rate 0.0158 kg/ha): 3.0 | Postemergence herbicidal rating ZEAMX ([9]; Rate 0.0315 kg/ha): 4.5 | Postemergence herbicidal rating ZEAMX ([9]; Rate 0.0630 kg/ha): 6.0 | Herbicidal rating CYPIR ([10]; 0.1250 kg/ha): 2.0 | Herbicidal rating CYPIR ([10]; 0.2500 kg/ha): 4.5 | Herbicidal rating SAGPY ([11]; rate 0.1250 kg/ha): 0.0 | Herbicidal rating SAGPY ([11]; rate 0.2500 kg/ha): 2.0 | Postemergence herbicidal rating GLXMAW ([12]; Rate 0.0158 kg/ha): 6.5 | Postemergence herbicidal rating GLXMAW ([12]; Rate 0.0315 kg/ha): 6.5 | Postemergence herbicidal rating GLXMAW ([12]; Rate 0.0630 kg/ha): 6.5 | Herbicidal rating CYPSE ([13]; rate 0.1250 kg/ha): 0.0 | Herbicidal rating CYPSE ([13]; rate 0.2500 kg/ha): 0.0 | Preemergence herbicidal rating GALAP ([14]; rate 0.0313 kg/ha): 0.0 | Preemergence herbicidal rating GALAP ([14]; rate 0.0625 kg/ha): 0.0 | Preemergence herbicidal rating GALAP ([14]; rate 0.1250 kg/ha): 1.0 | Preemergence herbicidal rating GALAP ([14]; rate 0.2500 kg/ha): 9.0
